According to patent US20080096894A1, “Anti-Bacterial Compounds” (ASTON UNIVERSITY, priority 2005, published 2008):
Values after ≈ are worked out from the molar mass of the structure shown. Like-named read-outs stand apart in the source and are kept apart here. Blank lines part the entries; values can stand above or below the compound they belong to.

What was measured:
[1] = system: Staphylococcus aureus (MRSA) 96-7475; assay: MIC, doubling dilution in 96-well microtitre plate; format: cell-based
Experimental: (§1) The compound was tested as follows. […] The wells were inoculated with organism ([…] of medium containing 10^6 cfu/mL) and the plates were incubated at 37° C. overnight. Where growth of organism occurred this was observed as a small button when viewed from underneath the plate. The MIC was determined as the lowest concentration inhibiting growth.

[2] = system: Pseudomonas aeruginosa ATCC 15692 (PA01); assay: MIC, doubling dilution in 96-well microtitre plate; format: cell-based
Experimental: as §1

Bacillus megarerium = assay: MIC, doubling dilution in 96-well microtitre plate; format: cell-based
Experimental: as §1

Moraxella catarrhalis = assay: MIC, doubling dilution in 96-well microtitre plate; format: cell-based
Experimental: as §1

Salmonella banana = assay: MIC, doubling dilution in 96-well microtitre plate; format: cell-based
Experimental: as §1

Salmonella arizonae = assay: MIC, doubling dilution in 96-well microtitre plate; format: cell-based
Experimental: as §1

[3] = system: Escherichia coli olli-blue; assay: MIC, doubling dilution in 96-well microtitre plate; format: cell-based
Experimental: as §1

[4] = system: Staphylococcus aureus NCTC 10788; assay: MIC, doubling dilution in 96-well microtitre plate; format: cell-based
Experimental: as §1

[5] = system: Staphylococcus epidermidis NCTC 11047; assay: MIC, doubling dilution in 96-well microtitre plate; format: cell-based
Experimental: as §1

[6] = system: Staphylococcus aureus W11 MRSA; assay: MIC, doubling dilution in 96-well microtitre plate; format: cell-based
Experimental: as §1

Bacillus subtilis = assay: MIC, doubling dilution in 96-well microtitre plate; format: cell-based
Experimental: as §1

Citrobacter freundii = assay: MIC, doubling dilution in 96-well microtitre plate; format: cell-based
Experimental: as §1

Salmonella Cambridge = assay: MIC, doubling dilution in 96-well microtitre plate; format: cell-based
Experimental: as §1

[7] = system: Streptococcus bovis NCTC 11436; assay: MIC, doubling dilution in 96-well microtitre plate; format: cell-based
Experimental: as §1

Bacillus cereus = assay: MIC, doubling dilution in 96-well microtitre plate; format: cell-based
Experimental: as §1

[8] = system: Proteus mirabilis NCTC 5887; assay: MIC, doubling dilution in 96-well microtitre plate; format: cell-based
Experimental: as §1

[9] = system: Staphylococcus aureus NCTC 6571; assay: MIC, doubling dilution in 96-well microtitre plate; format: cell-based
Experimental: as §1

Salmonella enteriditis = assay: MIC, doubling dilution in 96-well microtitre plate; format: cell-based
Experimental: as §1

[10] = system: Enterobacter cloacae ATCC 13047; assay: MIC, doubling dilution in 96-well microtitre plate; format: cell-based
Experimental: as §1

[11] = system: Enterococcus faecalis NCTC 5957; assay: MIC, doubling dilution in 96-well microtitre plate; format: cell-based
Experimental: as §1

Micrococcus roseus = assay: MIC, doubling dilution in 96-well microtitre plate; format: cell-based
Experimental: as §1

Hafnia alvei = assay: MIC, doubling dilution in 96-well microtitre plate; format: cell-based
Experimental: as §1

[12] = system: Citrobacter diversus 2046E; assay: MIC, doubling dilution in 96-well microtitre plate; format: cell-based
Experimental: as §1

[13] = system: vancomycin resistant enterococci; assay: MIC, agar dilution, multipoint inoculator; format: cell-based; conditions: one value printed for the seven vancomycin resistant enterococci cultures of Table 5; read-out: MIC
Experimental: This activity was measured using a multipoint inoculator method as follows. The MIC for each compound was measured using an agar dilution method (Onda, H., et al., Int. J. Antimicrob. Agents. 18, 263 (2001)) (Mueller Hinton agar) by means of a multipoint inoculator delivering 10^4 colony forming units per spot.
It will be noted that compound 4PYcq was active against all strains of MRSA as well as all other Gram positive bacteria. For this reason it was further tested against some vancomycin resistant enterococci, using the multipoint inoculator method described above. It can be seen from Table 5 that the high level activity was retained.

S. epidemisis = assay: MIC, agar dilution, multipoint inoculator; format: cell-based, Staphylococcus epidermidis; conditions: Staphylococcus epidermidis, upper value of MIC reading, read-out: MIC
How it was run: (§2)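 Read-out is the MIC by agar dilution. Plates contain Mueller Hinton agar; bacteria are applied via multipoint inoculator, 10^4 CFU per spot.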

[14] = system: human mononuclear leucocytes (MNL, white blood cells); assay: direct leucocyte toxicity, tryptan blue exclusion, 18 hours; format: cell-based
How it was run: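 Human mononuclear leucocytes exposed to test compound for 18 hours. Cell death scored by trypan blue exclusion, the dye staining dead cells only.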

S. aureus = assay: MIC, agar dilution, multipoint inoculator; format: cell-based, Staphylococcus aureus; conditions: Staphylococcus aureus, upper value of MIC reading, read-out: MIC
How it was run: as §2

S. haemolyticus = assay: MIC, agar dilution, multipoint inoculator; format: cell-based; conditions: Staphylococcus haemolyticus, 18 h; S. haemolyticus Isolate 1; upper value of MIC reading; read-out: MIC
How it was run: as §2

E. faecalis = assay: MIC, agar dilution, multipoint inoculator; format: cell-based; conditions: Enterococcus faecalis, upper value of MIC reading, read-out: MIC
How it was run: as §2

MRSA = assay: MIC, agar dilution, multipoint inoculator; format: cell-based, methicillin-resistant Staphylococcus aureus; conditions: Staphylococcus aureus
How it was run: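 Agar dilution MIC on Mueller Hinton agar, multipoint inoculator delivering 10^4 colony forming units per spot. MRSA values are ranges across ten clinical MRSA strains; S. aureus NCTC 6571 as reference strain.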

SMILES: NC(=NN=Cc1ccc([N+](=O)[O-])o1)c1cc[n+]([O-])cc1 (mixture of isomers) [Compound 4PYOfi]
MIC [1]: 4 to 8 µg/mL
MIC [2]: 32 to 64 µg/mL
MIC (Bacillus megarerium): 8 to 16 µg/mL
MIC (Moraxella catarrhalis): 16 to 32 µg/mL
MIC (Salmonella banana): 4 to 8 µg/mL
MIC (Salmonella arizonae): 16 to 32 µg/mL
MIC [3]: 16 to 32 µg/mL
MIC [4]: 4 to 8 µg/mL
MIC [5]: 2 to 4 µg/mL
MIC [6]: 4 to 8 µg/mL
MIC (Bacillus subtilis): 8 to 16 µg/mL
MIC (Citrobacter freundii): 32 to 64 µg/mL
MIC (Salmonella Cambridge): 16 to 32 µg/mL
MIC [7]: 4 to 8 µg/mL
MIC (Bacillus cereus): 8 to 16 µg/mL
MIC [8]: 32 to 64 µg/mL
MIC [9]: 4 to 8 µg/mL
MIC (Salmonella enteriditis): 32 to 64 µg/mL
MIC [10]: 32 to 64 µg/mL
MIC [11]: 4 to 8 µg/mL
MIC (Micrococcus roseus): 8 to 16 µg/mL
MIC (Hafnia alvei): 32 to 64 µg/mL
MIC [12]: 32 to 64 µg/mL

MIC [13]: 2 to 4 µg/mL (≈ 5.67 to 11.3 µM)
MIC (S. epidemisis; 18 h, S. epidemisis Isolate 1): 4 µg/mL (≈ 11.3 µM)
MIC (S. epidemisis; NCTC11047, 18 h, S. epidemisis NCTC 11047): 4 µg/mL (≈ 11.3 µM)
MIC (S. aureus; 18 h, S. aureus Cowan 1): 4 µg/mL (≈ 11.3 µM)
MIC (S. aureus; NCTC6571, 18 h, S. aureus NCTC 6571): 4 µg/mL (≈ 11.3 µM)
MIC (S. aureus; NCTC10788, 18 h, S. aureus NCTC 10788): 4 µg/mL (≈ 11.3 µM)
MIC (E. faecalis; 18 h, E. faecalis EBH1): 4 µg/mL (≈ 11.3 µM)
MIC (E. faecalis; 18 h, E. faecalis Isolate 1): 4 µg/mL (≈ 11.3 µM)
MIC (E. faecalis; 18 h, E. faecalis Isolate 2): 4 µg/mL (≈ 11.3 µM)
MIC (E. faecalis; 18 h, E. faecalis Isolate 4): 4 µg/mL (≈ 11.3 µM)
MIC (E. faecalis; 18 h, E. faecalis Isolate 5): 4 µg/mL (≈ 11.3 µM)
MIC (E. faecalis; NCTC5957, 18 h, E. faecalis NCTC 5957): 4 µg/mL (≈ 11.3 µM)
MIC (MRSA; 18 h, MRSA Isolate 1, upper value of MIC reading, read-out: MIC): 4 µg/mL (≈ 11.3 µM)
MIC (MRSA; 18 h, MRSA Isolate 2, upper value of MIC reading, read-out: MIC): 4 µg/mL (≈ 11.3 µM)
MIC (MRSA; 18 h, MRSA Isolate 3, upper value of MIC reading, read-out: MIC): 4 µg/mL (≈ 11.3 µM)
MIC (MRSA; 18 h, MRSA Isolate 4, upper value of MIC reading, read-out: MIC): 4 µg/mL (≈ 11.3 µM)
MIC (MRSA; 18 h, MRSA Isolate 5, upper value of MIC reading, read-out: MIC): 4 µg/mL (≈ 11.3 µM)
MIC (MRSA; 18 h, MRSA Isolate 6, upper value of MIC reading, read-out: MIC): 4 µg/mL (≈ 11.3 µM)
MIC (MRSA; 18 h, MRSA Isolate 7, upper value of MIC reading, read-out: MIC): 4 µg/mL (≈ 11.3 µM)
MIC (MRSA; 18 h, MRSA Isolate 8, upper value of MIC reading, read-out: MIC): 4 µg/mL (≈ 11.3 µM)
MIC (MRSA; 18 h, MRSA Isolate 9, upper value of MIC reading, read-out: MIC): 4 µg/mL (≈ 11.3 µM)
MIC (MRSA; 18 h, MRSA Isolate 10, upper value of MIC reading, read-out: MIC): 4 µg/mL (≈ 11.3 µM)
MIC (MRSA; MRSA, 18 h, panel of ten MRSA strains (clinical isolates), read-out: MRSA MIC range): 2 to 4 µg/mL (≈ 5.67 to 11.3 µM)
MIC (MRSA; MRSA, the MRSA strains which were tested, read-out: MIC): 2 to 4 µg/mL (≈ 5.67 to 11.3 µM)
SMILES: CC(C)(C)c1cc(/C=N/N=C(\N)c2ccncc2)c(O)c(C(C)(C)C)c1 [Compound 4PYcq]
direct MNL toxicity (in words) [14]: very toxic to leucocytes
MIC (S. haemolyticus): 4 µg/mL (≈ 11.3 µM)
